#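 The compound was tested at five concentrations on cells cultured in 96-well plates, with a 48-hour exposure period. GI50 is the concentration that inhibits growth by half. TGI is the concentration that stops growth completely.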
# What was measured:
# Assay in all cases: NCI anticancer screen, dose series, 48 h
# ACHN renal = system: ACHN renal
# CAKI-1 renal = system: CAKI-1 renal
# KM12 colon = system: KM12 colon
# LOX IMVI melanoma = system: LOX IMVI melanoma
# OVCAR-5 ovarian = system: OVCAR-5 ovarian
# SK-MEL-5 melanoma = system: SK-MEL-5 melanoma
# SN12C renal = system: SN12C renal
# SW-620 colon = system: SW-620 colon
# HCT-15 colon = system: HCT-15 colon
# MCF7 breast = system: MCF7 breast
SMILES,TGI (ACHN renal),TGI (CAKI-1 renal),TGI (KM12 colon),TGI (LOX IMVI melanoma),TGI (OVCAR-5 ovarian),TGI (SK-MEL-5 melanoma),TGI (SN12C renal),TGI (SW-620 colon),TGI (HCT-15 colon),TGI (MCF7 breast),GI50 (ACHN renal),GI50 (CAKI-1 renal),GI50 (HCT-15 colon),GI50 (KM12 colon),GI50 (LOX IMVI melanoma),GI50 (MCF7 breast),GI50 (OVCAR-5 ovarian),GI50 (SK-MEL-5 melanoma),GI50 (SN12C renal),GI50 (SW-620 colon)
CCC(C)C(=O)c1c(O)c(C/C=C(\C)CCC=C(C)C)c(O)c2c(C(O)CC)cc(=O)oc12 (stereo not drawn),8.38 µM,12.1 µM,11.4 µM,12.6 µM,17.9 µM,2.74 µM,8.26 µM,14 µM,–,–,–,–,–,–,–,–,–,–,–,–
CC[n+]1c(/C=C/c2ccc(N(CCCl)CCCl)cc2)ccc2cc(NC(=O)/C=C/c3ccccc3)ccc21,> 56.6 µM,19.2 µM,1.58 µM,1.51 µM,6.03 µM,0.632 µM,1.52 µM,0.67 µM,> 94.7 µM,1.24 µM,–,–,–,–,–,–,–,–,–,–
COc1cc(C2c3cc4c(cc3[C@@H](Nc3cccc(C(C)=O)c3)C3COC(=O)[C@H]23)OCO4)cc(OC)c1O (stereo partly drawn),–,2.13 µM,5.67 µM,4.38 µM,> 59.7 µM,2.37 µM,–,> 38.2 µM,2.06 µM,28.2 µM,–,–,–,–,–,–,–,–,–,–
COc1ccc(CC(C)N)cc1 (stereo not drawn),> 100 µM,> 100 µM,> 100 µM,> 100 µM,> 100 µM,> 100 µM,> 100 µM,> 100 µM,> 100 µM,–,–,–,–,–,–,–,–,–,–,–
CCO/N=[N+](\[O-])N(CC)CC,> 100 µM,> 100 µM,> 100 µM,> 100 µM,> 100 µM,> 100 µM,> 100 µM,> 100 µM,> 100 µM,–,–,–,–,–,–,–,–,–,–,–
CC1(C)N=C(N)N=C(N)N1c1cccc(OCCOc2ccc([N+](=O)[O-])cc2)c1,> 100 µM,> 100 µM,> 100 µM,> 100 µM,> 100 µM,> 100 µM,> 100 µM,> 100 µM,> 100 µM,> 100 µM,–,–,–,–,–,–,–,–,–,–
CC(C)C[P+](c1ccccc1)(c1ccccc1)c1ccccc1,> 100 µM,37.8 µM,20.7 µM,> 100 µM,> 100 µM,18.2 µM,> 100 µM,> 100 µM,> 100 µM,> 100 µM,–,–,–,–,–,–,–,–,–,–
Cc1nc2ccccc2c(=O)[nH]1,> 100 µM,–,> 100 µM,> 100 µM,> 100 µM,> 100 µM,> 100 µM,> 100 µM,> 100 µM,–,–,–,–,–,–,–,–,–,–,–
ClCc1c(Cl)c(Cl)c(Cl)c(CCl)c1Cl,3 µM,3.1 µM,3.48 µM,3.13 µM,4.18 µM,6.25 µM,4.03 µM,3.12 µM,2.85 µM,3.7 µM,1.64 µM,1.68 µM,1.52 µM,1.85 µM,1.46 µM,1.73 µM,1.93 µM,2.23 µM,1.91 µM,1.71 µM
CCOC(=O)/C=C(\C)c1ccc(OC)cc1,> 100 µM,> 100 µM,> 100 µM,> 100 µM,> 100 µM,> 100 µM,> 100 µM,> 100 µM,> 100 µM,–,–,–,–,–,–,–,–,–,–,–
COc1cc[n+](C)cc1,–,–,> 100 µM,> 100 µM,> 100 µM,> 100 µM,> 100 µM,> 100 µM,> 100 µM,> 100 µM,–,–,–,–,–,–,–,–,–,–
NCc1ccc(C(=O)O)cc1,> 100 µM,> 100 µM,> 100 µM,> 100 µM,> 100 µM,> 100 µM,> 100 µM,> 100 µM,> 100 µM,–,–,–,–,–,–,–,–,–,–,–
C#CC[C@@H]1C[C@]2(C)[C@H]3CC=C4[C@H]5CC(C)(C)CC[C@]5(C(=O)NCCCCN)CC[C@@]4(C)[C@]3(C)CC[C@H]2C(C)(C)[C@H]1OC(C)=O,3.11 µM,2.9 µM,3.18 µM,–,2.99 µM,–,3.28 µM,3.39 µM,–,–,1.73 µM,1.54 µM,–,1.68 µM,–,–,1.62 µM,–,1.76 µM,1.71 µM
Brc1ccccc1-c1ncc(-c2ccccc2)o1,> 100 µM,> 100 µM,41.7 µM,34.1 µM,> 100 µM,34.5 µM,> 100 µM,> 100 µM,44.9 µM,> 100 µM,–,–,–,–,–,–,–,–,–,–
O=[N+]([O-])c1cn[n+]([O-])c2ccccc12,3.83 µM,8.1 µM,18.4 µM,20.9 µM,25.6 µM,26.7 µM,21.5 µM,4.91 µM,8.52 µM,50.1 µM,–,–,–,–,–,–,–,–,–,–
CN(C)c1ccc(N=Nc2ccccn2)cc1,> 100 µM,> 100 µM,> 100 µM,> 100 µM,> 100 µM,> 100 µM,> 100 µM,> 100 µM,> 100 µM,14.6 µM,–,–,–,–,–,–,–,–,–,–
CC(C)(Br)C1(O)CCCN1C(=O)c1ccccc1 (stereo not drawn),> 100 µM,–,> 100 µM,> 100 µM,> 100 µM,> 100 µM,> 100 µM,> 100 µM,> 100 µM,–,–,–,–,–,–,–,–,–,–,–
NCc1ccccc1C1CSCSC1,> 100 µM,–,> 100 µM,> 100 µM,–,> 100 µM,> 100 µM,> 100 µM,> 100 µM,–,–,–,–,–,–,–,–,–,–,–
COc1ccc(NC(=O)/C(CC2=Nc3ccc([N+](=O)[O-])cc3NC2O)=N\NC(=O)C[N+](C)(C)C)c(OC)c1 (stereo not drawn),> 100 µM,> 100 µM,> 100 µM,> 100 µM,> 100 µM,96.3 µM,> 100 µM,> 100 µM,> 100 µM,> 100 µM,–,–,–,–,–,–,–,–,–,–
Cn1c(-c2ccc(/C=N\N3CCN(/N=C/c4ccc(-c5c[n+]6ccccc6n5C)cc4)CC3)cc2)c[n+]2ccccc12,> 100 µM,> 100 µM,> 100 µM,> 100 µM,> 100 µM,> 100 µM,> 100 µM,> 100 µM,> 100 µM,> 100 µM,–,–,–,–,–,–,–,–,–,–
C=C1C(=O)OC2C1CC(O)/C(C)=C\CCC1(C)OC21 (stereo not drawn),> 100 µM,–,> 100 µM,78.7 µM,75 µM,47.5 µM,–,> 100 µM,33.5 µM,86.1 µM,–,–,–,–,–,–,–,–,–,–

# Source: PubChem BioAssay (NCI)
